Results: US11890288B2, “Sulfonamide or sulfinamide compound having effect of inducing BRD4 protein degradation and pharmaceutical use thereof” (MITSUBISHI TANABE PHARMA CORPORATION, priority 2020, dated 2024)
Marks after values point to notes of the source that are not given here.

Experiments:
[1] = system: human acute myeloid leukemia MV-4-11 cell transplanted mouse; assay: Antitumor effect of 1 week intermittent administration to MV-4-11 cell transplanted mouse (tail vein, days 1 and 8); assay type: in vivo; conditions: tumor weight on day 15
Procedure: The in vivo antitumor effect of the compound of the present invention was studied using human acute myeloid leukemia MV-4-11 cell transplanted mouse. MV-4-11 cells were subcutaneously transplanted into the inguinal region of male, 6-week-old BALB/c nude mouse (5×10^6 cells/mouse). The compound of the present invention was administered into the tail vein on days 1 and 8 from the time point when the assumed tumor volume determined from ½ab^2 (a is major axis and b is minor axis of tumor) reached about 200 mm^3 (day 1). The control group was administered with a solvent, 10% Kolliphor ELP/5% ethanol/85% saline solution. On day 15, the tumor was isolated, the weight was measured, and the tumor growth inhibitory rate IR (%) was calculated by the following formula. tumor growth inhibitory rate IR (%)={1−(average tumor weight of administration group/average tumor weight of nonadministration control group)}×100(%)

[2] = system: human prostate cancer LNCaP cells; assay: Cytotoxic action on LNCaP cells (WST-8, 96 hr); assay type: cell-based; conditions: 96 hr culture
Summary of the method: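 Growth-inhibition format: 96 hr continuous exposure, 37° C, 5% CO2, 10% FBS/RPMI1640, WST-8 read-out. Values are IC50 against the untreated-control survival, taken from the line joining the two points around 50%.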

BRD4 protein = BRD4 protein (Homo sapiens (Human), UniProt O60885); assay: BRD4 protein degradation inducing action in LNCaP cells (immunofluorescence, 6 hr); assay type: cell-based; conditions: anti-BRD4 fluorescence intensity
Summary of the method: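 LNCaP cells in 10% FBS/RPMI1640 exposed to compound for 6 hr, fixed, permeabilized and immunostained for BRD4 with Alexa Fluor 546 secondary; fluorescence (ex 560, em 572 nm) read by imaging. DC50 = concentration giving 50% of untreated signal, interpolated linearly between the two bracketing points.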

[3] = system: Human breast cancer MDA-MB-436 cells; assay: Cytotoxic action on MDA-MB-436 cells (WST-8, 96 hr); assay type: cell-based; conditions: Homo sapiens
Procedure: (§1) The cytotoxic action of the compound of the present invention against cancer cells that acquired resistance to conventional BRD4 protein degradation inducing agents was evaluated in vitro. In this experiment, ARV-771 (Proc Natl Acad Sci USA. volume 113, pages 7124-7129 (28 Jun. 2016)) and MZ1 (ACS Chem Biol. Volume 10, pages 1770-1777 (21 Aug. 2015)), in which a ligand for VHL and BRD4 protein inhibitor are linked, were used as a conventional BRD4 protein degradation inducing agent serving as a comparison control. Human breast cancer MDA-MB-436 cells and MDA-MB-436 cells that acquired resistance to conventional BRD4 protein degradation inducing agents (MDA-MB-436 w/o2 cells) were suspended in 10% FBS/RPMI1640, seeded in a 96 well plate and cultured at 5% CO2, 37° C. overnight. A test compound dissolved in DMSO was diluted with 10% FBS/RPMI1640 and added and the cells were further cultured for 96 hr. After culturing, the viable cell number was measured using a cell number measurement WST-8 kit (Kishida Chemical Co., Ltd.). As a control, the measurement was performed under conditions free of the test compound. The cytotoxic activity of the compound of the present invention against each cell is shown in IC50 value in Table 4. The IC50 value is a concentration of the compound showing 50% cell survival rate when the cell survival rate thereof under compound untreated condition is 100%. It was calculated from the straight line connecting the cell survival rate at two points enclosing the 50% cell survival rate and the compound concentration. In addition, the tolerance (fold) was calculated by dividing the IC50 value in MDA-MB-436 w/o2 cells by the IC50 value in MDA-MB-436 cells.

MDA-MB-436 w/o2 cells = assay: Cytotoxic action on MDA-MB-436 w/o2 cells that acquired resistance to conventional BRD4 degraders (WST-8, 96 hr); assay type: cell-based, human; conditions: for IC50: Homo sapiens, MDA-MB-436 w/o2 cells, 96 hr; for resistance: IC50 in MDA-MB-436 w/o2 cells divided by IC50 in MDA-MB-436 cells
Procedure: as §1

Row | SMILES | DC50 (BRD4 protein) [nM] | tumor growth inhibitory rate ([1]; 4 mg/kg/day) | tumor growth inhibitory rate ([1]; 12.5 mg/kg/day) | IC50 [2] [nM] | IC50 [3] [nM] | IC50 (MDA-MB-436 w/o2 cells) [nM] | resistance (MDA-MB-436 w/o2 cells) [fold]
1 | COC(=O)C[C@@H]1N=C(c2ccc(-c3ccc(C(=O)NCc4ccc(S(=O)(=O)Nc5ccc(C)c6c(C#N)c[nH]c56)cc4)c(F)c3F)cc2)c2c(sc(C)c2C)-n2c(C)nnc21 [Example 74, methyl [(6S)-4-{4′-[({4-[(3-cyano-4-methyl-1H-indol-7-yl)sulfamoyl]phenyl}methyl)carbamoyl]-2′,3′-difluoro[1,1′-biphenyl]-4-yl}-2,3,9-trimethyl-6H-thieno[3,2-f][1,2,4]triazolo[4,3-a][1,4]diazepin-6-yl]acetate] | 0.092 | 43** % | 94** % | 0.21 | – | – | –
2 | COC(=O)C[C@@H]1N=C(c2ccc(-c3ccc(C(=O)NCc4ccc(S(=O)(=O)Nc5ccc(C)c6c(C#N)c[nH]c56)cc4)nc3)cc2)c2c(sc(C)c2C)-n2c(C)nnc21 [Example 53, methyl [(6S)-4-(4-{6-[({4-[(3-cyano-4-methyl-1H-indol-7-yl)sulfamoyl]phenyl}methyl)carbamoyl]pyridin-3-yl}phenyl)-2,3,9-trimethyl-6H-thieno[3,2-f][1,2,4]triazolo[4,3-a][1,4]diazepin-6-yl]acetate] | 0.078 | – | – | 0.16 | 0.21 | 0.32 | 1.5
3 | COC(=O)C[C@@H]1N=C(c2ccc(-c3ccc(C(=O)NCc4ccc(S(=O)(=O)Nc5ccc(C)c6c(C#N)c[nH]c56)cc4)cc3Cl)cc2)c2c(sc(C)c2C)-n2c(C)nnc21 [Example 47, methyl [(6S)-4-{2′-chloro-4′-[({4-[(3-cyano-4-methyl-1H-indol-7-yl)sulfamoyl]phenyl}methyl)carbamoyl][1,1′-biphenyl]-4-yl}-2,3,9-trimethyl-6H-thieno[3,2-f][1,2,4]triazolo[4,3-a][1,4]diazepin-6-yl]acetate] | 0.3 | 32* % | 68** % | 0.46 | – | – | –
4 | CCc1ccc(NS(=O)(=O)c2ccc(CNC(=O)c3ccc(-c4ccc(C5=N[C@@H](CC(=O)OC)c6nnc(C)n6-c6sc(C)c(C)c65)cc4)cc3F)cc2)c2[nH]cc(C#N)c12 [Example 112, methyl [(6S)-4-{4′-[({4-[(3-cyano-4-ethyl-1H-indol-7-yl)sulfamoyl]phenyl}methyl)carbamoyl]-3′-fluoro[1,1′-biphenyl]-4-yl}-2,3,9-trimethyl-6H-thieno[3,2-f][1,2,4]triazolo[4,3-a][1,4]diazepin-6-yl]acetate] | 0.25 | – | – | 0.44 | – | – | –
5 | Cc1sc2c(c1C)C(c1ccc(-c3ccc(C(=O)NCc4ccc(S(=O)(=O)Nc5ccc(C)c6c(C#N)c[nH]c56)cc4)cc3)cc1)=N[C@@H](CC(=O)N(C)C)c1nnc(C)n1-2 [Example 38, N-({4-[(3-cyano-4-methyl-1H-indol-7-yl)sulfamoyl]phenyl}methyl)-4′-{(6S)-6-[2-(dimethylamino)-2-oxoethyl]-2,3,9-trimethyl-6H-thieno[3,2-f][1,2,4]triazolo[4,3-a][1,4]diazepin-4-yl}[1,1′-biphenyl]-4-carboxamide] | 5.6 | – | – | 5.8 | – | – | –
6 | Cc1sc2c(c1C)C(c1ccc(-c3ccc(C(=O)NCc4ccc(S(=O)(=O)Nc5ccc(C)c6c(C#N)c[nH]c56)cc4)cc3Cl)cc1)=N[C@@H](CC(=O)OC(C)(C)C)c1nnc(C)n1-2 [Example Compound 143, t-butyl [(6S)-4-{2′-chloro-4′-[({4-[(3-cyano-4-methyl-1H-indol-7-yl)sulfamoyl]phenyl}methyl)carbamoyl][1,1′-biphenyl]-4-yl}-2,3,9-trimethyl-6H-thieno[3,2-f][1,2,4]triazolo[4,3-a][1,4]diazepin-6-yl]acetate] | 1.6 | – | – | 2.4 | – | – | –
7 | COC(=O)C[C@@H]1N=C(c2ccc(-c3cnc(C(=O)NCc4ccc(S(=O)(=O)Nc5ccc(C)c6c(C#N)c[nH]c56)cc4)nc3)cc2)c2c(sc(C)c2C)-n2c(C)nnc21 [Example Compound 146, methyl [(6S)-4-(4-{2-[({4-[(3-cyano-4-methyl-1H-indol-7-yl)sulfamoyl]phenyl}methyl)carbamoyl]pyrimidin-5-yl}phenyl)-2,3,9-trimethyl-6H-thieno[3,2-f][1,2,4]triazolo[4,3-a][1,4]diazepin-6-yl]acetate] | 0.26 | – | – | 1.3 | – | – | –

Further compounds by falling DC50 (BRD4 protein), results first:

Row | DC50 (BRD4 protein) [nM] | SMILES | tumor growth inhibitory rate ([1]; 4 mg/kg/day) | tumor growth inhibitory rate ([1]; 12.5 mg/kg/day) | IC50 [2] [nM] | IC50 [3] [nM] | IC50 (MDA-MB-436 w/o2 cells) [nM] | resistance (MDA-MB-436 w/o2 cells) [fold]
8 | 0.12 | CCc1ccc(NS(=O)(=O)c2ccc(CNC(=O)c3ccc(-c4ccc(C5=N[C@@H](CC(=O)OC)c6nnc(C)n6-c6sc(C)c(C)c65)cc4)cc3)cc2)c2[nH]cc(C#N)c12 [Example 43, methyl [(6S)-4-{4′-[({4-[(3-cyano-4-ethyl-1H-indol-7-yl)sulfamoyl]phenyl}methyl)carbamoyl][1,1′-biphenyl]-4-yl}-2,3,9-trimethyl-6H-thieno[3,2-f][1,2,4]triazolo[4,3-a][1,4]diazepin-6-yl]acetate] | – | – | 0.23 | 0.34 | 0.42 | 1.3
9 | 0.11 | COC(=O)C[C@@H]1N=C(c2ccc(-c3ccc(C(=O)NCCc4ccc(S(=O)(=O)Nc5ccc(C)c6c(C#N)c[nH]c56)cc4)cc3F)cc2)c2c(sc(C)c2C)-n2c(C)nnc21 [Example 46, methyl [(6S)-4-{4′-[(2-{4-[(3-cyano-4-methyl-1H-indol-7-yl)sulfamoyl]phenyl}ethyl)carbamoyl]-2′-fluoro[1,1′-biphenyl]-4-yl}-2,3,9-trimethyl-6H-thieno[3,2-f][1,2,4]triazolo[4,3-a][1,4]diazepin-6-yl]acetate] | – | – | 0.19 | 0.2 | 0.26 | 1.3
10 | 0.059 | CCc1ccc(NS(=O)(=O)c2ccc([C@@H](C)NC(=O)c3cnc(-c4ccc(C5=N[C@@H](CC(=O)OC)c6nnc(C)n6-c6sc(C)c(C)c65)cc4)cn3)cc2)c2[nH]cc(C#N)c12 [Example 106, methyl {(6S)-4-[4-(5-{[(1R)-1-{4-[(3-cyano-4-ethyl-1H-indol-7-yl)sulfamoyl]phenyl}ethyl]carbamoyl}pyrazin-2-yl)phenyl]-2,3,9-trimethyl-6H-thieno[3,2-f][1,2,4]triazolo[4,3-a][1,4]diazepin-6-yl}acetate] | 96** % | 98** % | 0.079 | – | – | –
11 | 0.039 | CCc1ccc(NS(=O)(=O)c2ccc(CCNC(=O)c3ccc(-c4ccc(C5=N[C@@H](CC(=O)OC)c6nnc(C)n6-c6sc(C)c(C)c65)cc4)cc3)cc2)c2[nH]cc(C#N)c12 [Example Compound 128, methyl [(6S)-4-{4′-[(2-{4-[(3-cyano-4-ethyl-1H-indol-7-yl)sulfamoyl]phenyl}ethyl)carbamoyl][1,1′-biphenyl]-4-yl}-2,3,9-trimethyl-6H-thieno[3,2-f][1,2,4]triazolo[4,3-a][1,4]diazepin-6-yl]acetate] | – | – | 0.074 | – | – | –
